Key:
Experiment in all cases: relative viability (nuclei count vs DMSO), 5 days (fraction); higher = more cells survive
[1] = compound: CCn1c(-c2nonc2N)nc2cnc(Oc3cccc(NC(=O)c4ccc(OCCN5CCOCC5)cc4)c3)cc21 + C[C@]1(O)C[C@@H](c2nc(-c3ccc4ccc(-c5ccccc5)nc4c3)c3c(N)nccn32)C1 [Linsitinib] (partner 1 µM)
Summary of the method: (§1)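 Relative viability was taken as the ratio of nuclei in treated wells to nuclei in vehicle wells. Lung cancer cell lines in 1536-well plates received compounds by pin tool one day after seeding, either one drug alone or a fixed anchor-drug dose plus five library-drug doses (not always all listed) in √10 steps. Nuclei were counted on 4× images after 5 days of treatment, and values are medians of duplicate plates.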

[2] = compound: CCn1c(-c2nonc2N)nc2cnc(Oc3cccc(NC(=O)c4ccc(OCCN5CCOCC5)cc4)c3)cc21 + O=C(c1cc(Cc2n[nH]c(=O)c3ccccc23)ccc1F)N1CCN(C(=O)C2CC2)CC1 [Olaparib] (partner 8 µM)
Summary of the method: as §1

[3] = compound: N=C1NC(=O)/C(=C/c2ccc(O)cc2)S1 [Mirin] + C[C@@H](Oc1cc(-c2cnn(C3CCNCC3)c2)cnc1N)c1c(Cl)ccc(F)c1Cl [Crizotinib] (partner 1 µM)
Summary of the method: as §1

[4] = compound: CCn1c(-c2nonc2N)nc2cnc(Oc3cccc(NC(=O)c4ccc(OCCN5CCOCC5)cc4)c3)cc21 + CC(C)C[C@H](NC(=O)[C@H](Cc1ccccc1)NC(=O)c1cnccn1)B(O)O [Bortezomib] (partner 0.002 µM)
Summary of the method: as §1

UMC-11 showed a relative viability ([1]; first compound 0.04 µM) of 1.14, a relative viability ([1]; first compound 0.1265 µM) of 1.07 and a relative viability ([1]; first compound 0.4 µM) of 0.915. It also gave a relative viability ([1]; first compound 1.265 µM) of 0.322, a relative viability ([1]; first compound 4 µM) of 0.337 and a relative viability ([2]; first compound 0.04 µM) of 0.38. It also gave a relative viability ([2]; first compound 0.1265 µM) of 0.303, a relative viability ([2]; first compound 0.4 µM) of 0.32 and a relative viability ([2]; first compound 1.265 µM) of 0.088. The relative viability ([2]; first compound 4 µM) was 0.185, the relative viability ([3]; first compound 0.25 µM) was 0.499 and the relative viability ([3]; first compound 0.7906 µM) was 0.578. For the same cell line, the relative viability ([3]; first compound 2.5 µM) was 0.529, the relative viability ([3]; first compound 7.906 µM) was 0.496 and the relative viability ([3]; first compound 25 µM) was 0.236. It also gave a relative viability ([4]; first compound 0.04 µM) of 0.999, a relative viability ([4]; first compound 0.1265 µM) of 0.439 and a relative viability ([4]; first compound 0.4 µM) of 0.312. For the same cell line, the relative viability ([4]; first compound 1.265 µM) was 0.161 and the relative viability ([4]; first compound 4 µM) was 0.135.
